Key:
Type in all cases: cell-based, human
[1] = tested on: Colo375FG metastatic pancreatic adenocarcinoma cells; assay: Bromodeoxyuridine (BrdU) labeling assay (flow cytometry); settings: Compound IIIc 12.5 mM; one value printed beside OxaliPt 0 10 20 mM, OxaliPt level not assignable
Procedure: 50 μl of BrdU (Sigma Chemical Co., St. Louis, Mo.) stock solution (1 mM) is added to give 10 μM BrdU final concentration. The cells are incubated for 30 min at 37° C. and fixed in ice-cold 70% ethanol and stored in a cold room (4° C.) overnight. Fixed cells are centrifuged and washed once in 2 ml PBS, then resuspended in 0.7 ml of denaturation solution (0.2 mg/ml pepsin in 2 N HCl) for 15 min at 37° C. in the dark and suspended with 1.04 ml 1M Tris buffer (Trizma base, Sigma Chemical Co.) to terminate the hydrolysis and washed in 2 ml PBS.
(§1) Cells are resuspended in 100-μl anti-BrdU antibody (DakoCytomation, Carpinteria, Calif.) with 1:100 dilution in TBFP permeable buffer (0.5% Tween-20, 1% bovine serum albumin and 1% fetal bovine serum in PBS) and incubated for 25 min at room temperature in the dark and washed in 2 ml PBS. The primary antibody-labeled cells are resuspended in 100 μl Alexa Fluor F(ab′)2 fragment of goat anti-mouse IgG (H+L) (2 mg/mL) (Molecular Probes, Eugene, Oreg.) with 1:200 dilution in TBFP permeable buffer and incubated for 25 min at room temperature in the dark and washed in 2 ml PBS, then resuspended in 0.5 ml ice-cold PBS containing 1 μg/ml 4′,6-diamidino-2-phenylindole (DAPI) for at least 30 min. All cell samples are analyzed with a BD LSR II (BD Biosciences, San Jose, Calif.).
as §1, with “50 μl of BrdU (Sigma Chemical Co., St. Louis, Mo.) stock solution (1 mM) is added to give 10 μM BrdU final concentration. The cells are incubated for 30 min at 37 °C and fixed in ice-cold 70% ethanol and stored in a cold room (4 °C) overnight. Fixed cells are centrifuged and washed once in 2 ml PBS, then resuspended in 0.7 ml of denaturation solution (0.2 mg/ml pepsin in 2 N HCl) for 15 min at 37° C. in the dark and suspended with 1.04 ml 1M Tris buffer (Trizma base, Sigma Chemical Co.) and washed in 2 ml PBS. Then cells” for “Cells”

[2] = tested on: Colo375FG metastatic pancreatic adenocarcinoma cells; assay: Live cell number (Coulter counter, methylene blue, PI exclusion)
Procedure: Colo375FG metastatic pancreatic adenocarcinoma cells are cultured in Dulbecco Modified Eagle Medium with 10% fetal bovine serum. Cells are plated at 10^5 per P100 or at 10^4 per P60 (for assays requiring up to 3 days of culture), in the presence of different concentrations of BiPar compounds and other agents, or DMSO control. Following treatment, the number of attached cells is measured using Coulter counter, and by staining with 1% methylene blue. Methylene blue is dissolved in 50%-50% mixture of Methanol and water. Cells are plated in 24- or 96-well plates and treated with compounds as indicated, then media are aspirated, cells are washed with PBS, fixed in methanol for 5-10 min, washed and the plates are allowed to dry completely. Methylene blue solution is added to wells and plates are incubated for 5 min. Staining solution is removed and plates are washed with dH2O. After plates are completely dry, a small amount of 1N HCl is added to each well to extract the methylene blue. The OD readout at 600 nm and a calibration curve are used to determine cell number.
IIIg (6-nitro-5-iodo-benzopyrone) is dissolved directly from dry powder to 10 mM stock solution in DMSO for each separate experiment, and then the entire volume of the stock solution is used to prepare working concentrations in cell culture medium to avoid any possibility of precipitation and the corresponding loss of compound. Control experiments are carried out with the matching volume/concentration of the vehicle (DMSO).
(§2) After the addition of drugs and incubation, cells are trypsinized and aliquots of the samples are taken for counting and PI (Propidium Iodide) exclusion assay. One part of the cells is centrifuged and resuspended in 0.5 ml ice-cold PBS containing 5 μg/ml of PI. The other part of the cells is fixed in ice-cold 70% ethanol and stored in a freezer overnight. For cell cycle analysis, cells are stained with propidium iodide (PI) by standard procedures. Cellular DNA content is determined by flow cytometry using BD LSRII FACS, and the percentages of cells in G1, S or G2/M are determined using ModFit software.
Colo375FG metastatic pancreatic adenocarcinoma cells are obtained from ATCC and cultured in Dulbecco Modified Eagle Medium with 10% fetal bovine serum. Cells are plated at 10^5 cells per P100 cell culture dish or at 10^4 cells per P60 cell culture dish in the presence of different concentrations compounds or DMSO control. Following treatment, the number of attached cells is measured using Coulter counter, and by staining with 1% methylene blue. Methylene blue is dissolved in 50%-50% mixture of Methanol and water. Cells are plated in 24- or 96-well plates and treated as planned, media are aspirated, cells are washed with PBS, fixed in methanol for 5-10 min, methanol is aspirated and plates are allowed to dry completely. Methylene blue solution is added to wells and plates are incubated for 5 min. Staining solution is removed and plates are washed with dH2O until washes are no longer blue. After plates are completely dry, a small amount of 1N HCl is added to each well to extract the methylene blue. The OD readout at 600 nm and a calibration curve are used to determine cell number.
Compounds of the invention are dissolved directly from dry powder to 10 mM stock solution in DMSO for each separate experiment. Control experiments are carried out with the matching volume/concentration of the vehicle (DMSO). In these controls, the cells show no changes in their growth or cell cycle distribution.
as §2, with “ug/ml” for “μg/ml”, “Cellular DNA content is determined by flow cytometry using BD LSRII FACS, and the percentages of cells in G1, S or G2/M are determined using ModFit software.” left out

[3] = tested on: Colo375FG metastatic pancreatic adenocarcinoma cells; assay: TUNEL apoptosis assay (flow cytometry)
Procedure: Cells are labeled for apoptosis with the “In Situ Cell Death Detection Kit, Fluorescein” (Roche Diagnostics Corporation, Roche Applied Science, Indianapolis, Ind.). Briefly, fixed cells are centrifuged and washed once in phosphate-buffered saline (PBS) containing 1% bovine serum albumin (BSA), then resuspended in 2 ml permeabilization buffer (0.1% Triton X-100 and 0.1% sodium citrate in PBS) for 25 min at room temperature and washed twice in 0.2 ml PBS/1% BSA. The cells are resuspended in 50 μl TUNEL reaction mixture (TdT enzyme and labeling solution) and incubated for 60 min at 37° C. in a humidified dark atmosphere in an incubator. The labeled cells are washed once in PBS/1% BSA, then resuspended in 0.5 ml ice-cold PBS containing 1 μg/ml 4′,6-diamidino-2-phenylindole (DAPI) for at least 30 min. All cell samples are analyzed with a BD LSR II (BD Biosciences, San Jose, Calif.).
The cells are labeled for apoptosis with the “In Situ Cell Death Detection Kit, Fluorescein” (Roche Diagnostics Corporation, Roche Applied Science, Indianapolis, Ind.). Briefly, fixed cells are centrifuged and washed once in phosphate-buffered saline (PBS) containing 1% bovine serum albumin (BSA), then resuspended in 2 ml permeabilization buffer (0.1% Triton X-100 and 0.1% sodium citrate in PBS) for 25 minutes at room temperature and washed twice in 0.2 ml PBS/1% BSA. The cells are resuspended in 50 μl TUNEL reaction mixture (TdT enzyme and labeling solution) and incubated for 60 min at 37° C. in a humidified dark atmosphere in an incubator. The labeled cells are washed once in PBS/1% BSA, then resuspended in 0.5 ml ice-cold PBS containing 1 μg/ml 4,6-diamidino-2-phenylindole (DAPI) for at least 30 min. All cell samples are analyzed with a BD LSR II (BD Biosciences, San Jose, Calif.).

[4] = Compound IIIc 12.5 mM, OxaliPt 0 mM
[5] = combination: Compound IIIc 12.5 mM + OxaliPt 10 mM
[6] = combination: Compound IIIc 12.5 mM + OxaliPt 20 mM

O=c1ccc2c(CCCCN3CC=C(c4ccccc4)CC3)c([N+](=O)[O-])ccc2o1 [IIIc]
Cells in S-phase of cell cycle (% BrdU+) [1]: 73.87%
Live Cell (%) [2, 4]: 54%
Live Cell (%) [2, 5]: 33%
Live Cell (%) [2, 6]: 25%
Dead cells TUNEL (%) [3, 4]: 2.7%
Dead cells TUNEL (%) [3, 5]: 16.1%
Dead cells TUNEL (%) [3, 6]: 28.2%

From patent US20090149417A1, “Methods and compositions for the treatment of cancer using benzopyrone-type PARP inhibitors” (priority 2007, published 2009)
